The values below come from patent US12667559B2, “Dihydronaphthyridinone compound, and preparation method therefor and medical use thereof” (GENFLEET THERAPEUTICS (SHANGHAI) INC., priority 2020, dated 2026).

For orientation: IC50 means the concentration needed to halve the response being measured.

SMILES strings stand for the structures.

In one assay the test system is U937 cells. The assay can be described thus: Inhibitory activity against TNF-α induced programmed cell necrosis (U937 cells, CellTiter-Glo). The note with it: Homo sapiens, U-937, 48 h, U937 cells, human TNF-α and Q-VD-Oph induced necrosis, 48 hours, survival rate; read-out: U937 IC50. The format is cell-based, human. Background: Cellular ATP, detected with luciferase, serves as a proxy for viable cell number.
`C[C@H](c1ccc(F)cc1)n1cc(N2CCc3ncc(-c4cc(C(F)(F)F)c5c(N)ncnn45)cc3C2=O)cn1` (single isomer, unassigned) [Z35-1]: the IC50 turned out to be 0.3 nM. Turning to `C[C@@H](c1ccc(F)cc1)n1cc(N2CCc3ncc(-c4cc(C(F)(F)F)c5c(N)ncnn45)cc3C2=O)cn1` (single isomer, unassigned) [Z35-2], the IC50 came out at 0.2 nM. Same read-out and setting: then `CC(=O)Nc1cn2nc(-c3cnc4c(c3)C(=O)N(c3cnn(C(C)c5ccc(F)cc5)c3)CC4)ccc2n1` (centres unmarked) [Z1], with 2.8 nM. The same measure, in the same setting: to `CC(=O)Nc1cn2nc(-c3cnc4c(c3)C(=O)N(Cc3cc(F)cc(F)c3OC3CCOC3)CC4)ccc2n1` (centres unmarked) [Z3, N-(6-(6-(3,5-difluoro-2-((tetrahydrofuran-3-yl)oxy)benzyl)-5-oxo-5,6,7,8-tetrahydro-1,6-naphthyridin-3-yl)imidazo[1,2-b]pyridazin-2-yl)acetamide] belongs 1.4 nM; to `CC(=O)Nc1cn2nc(-c3cnc4c(c3)C(=O)N(Cc3cc(F)ccc3OC3CCCC3)CC4)ccc2n1` [Z6, N-(6-(6-(2-(cyclopentyloxy)-5-fluorobenzyl)-5-oxo-5,6,7,8-tetrahydro-1,6-naphthyridin-3-yl)imidazol[1,2-b]pyridazin-2-yl)acetamide], 0.4 nM. On the same count and under the same terms, then `CC(=O)Nc1cn2nc(-c3cnc4c(c3)C(=O)N(C(C)c3ccccc3OC(F)(F)F)CC4)ccc2n1` (centres unmarked) [Z7, N-(6-(5-oxo-6-(1-(2-(trifluoromethoxy)phenyl)ethyl)-5,6,7,8-tetrahydro-1,6-naphthyridin-3-yl)imidazo[1,2-b]pyridazin-2-yl)acetamide], with 3.9 nM; and `CC(=O)Nc1cn2nc(-c3cnc4c(c3)C(=O)N(Cc3cccc(OC(F)(F)F)c3)CC4)ccc2n1` [Z8, N-(6-(5-oxo-6-(3-(trifluoromethoxy)benzyl)-5,6,7,8-tetrahydro-1,6-naphthyridin-3-yl)imidazo[1,2-b]pyridazin-2-yl)acetamide], with 40.3 nM; and `CC(=O)Nc1cn2nc(-c3cnc4c(c3)C(=O)N(Cc3cc(OC(F)(F)F)ccc3F)CC4)ccc2n1` [Z9, N-(6-(6-(2-fluoro-5-(trifluoromethoxy)benzyl)-5-oxo-5,6,7,8-tetrahydro-1,6-naphthyridin-3-yl)imidazo[1,2-b]pyridazin-2-yl)acetamide], with 10.4 nM.

In the case of `O=C1c2cc(-c3ccncc3)cnc2CCN1Cc1cc(F)cc(F)c1OC1CCOCC1` [Z11, 6-(3,5-difluoro-2-((tetrahydro-2H-pyran-4-yl)oxy)benzyl)-3-(pyridin-4-yl)-7,8-dihydro-1,6-naphthyridin-5(6H)-one], the IC50 was found to be 31.2 nM. On the same count and under the same terms, to `O=C1c2cc(-c3ccn4ncnc4c3)cnc2CCN1Cc1cc(F)cc(F)c1OC1CCOCC1` [Z13, 3-([1,2,4]triazolo[1,5-a]pyridin-7-yl)-6-(3,5-difluoro-2-((tetrahydro-2H-pyran-4-yl)oxy)benzyl)-7,8-dihydro-1,6-naphthyridin-5(6H)-one] belongs 1.7 nM; to `C[C@@](O)(C(=O)N1C[C@@H](N2CCc3ncc(-c4ccc5c(N)ncnn45)cc3C2=O)[C@@H](F)C1)C(F)(F)F` [Z31, cis-3-(4-aminopyrrolo[2,1-f][1,2,4]triazin-7-yl)-6-(4-fluoro-1-((R)-3,3,3-trifluoro-2-hydroxy-2-methylpropionyl)pyrrolidin-3-yl)-7,8-dihydro-1,6-naphthyridin-5(6H)-one], 18.2 nM.

Take `C[C@@](O)(C(=O)N1C[C@@H](F)[C@@H](N2CCc3ncc(-c4ccc5c(N)ncnn45)cc3C2=O)C1)C(F)(F)F` [Z31-1]: the IC50 is 7.4 nM. The same measure, in the same setting: to `C[C@@](O)(C(=O)N1CC[C@H](N2CCc3ncc(-c4cc(C(F)(F)F)c5c(N)ncnn45)cc3C2=O)C1)C(F)(F)F` [Z32] belongs 26.8 nM; to `CC(C)(O)C(=O)N1CC(F)C(N2CCc3ncc(-c4cc(C(F)(F)F)c5c(N)ncnn45)cc3C2=O)C1` (stereo not drawn) [Z33, cis-3-(4-amino-5-(trifluoromethyl)pyrrolo[2,1-f][1,2,4]triazin-7-yl)-6-(4-fluoro-1-(2-hydroxy-2-methylpropionyl)pyrrolidin-3-yl)-7,8-dihydro-1,6-naphthyridin-5(6H)-one], 338 nM. Still for that read-out and setting: to `CC(c1ccc(F)cc1)n1cc(N2CCc3ncc(-c4cc(C(F)(F)F)c5c(N)ncnn45)cc3C2=O)cn1` (centres unmarked) [Z35] belongs 0.3 nM; to `Nc1ncnn2c(-c3cnc4c(c3)C(=O)N(C3CN(C(=O)c5ccc(F)cc5)CC3F)CC4)cc(C(F)(F)F)c12` (stereo not drawn) [Z36, cis-3-(4-amino-5-(trifluoromethyl)pyrrolo[2,1-f][1,2,4]triazin-7-yl)-6-(4-fluoro-1-(4-fluorobenzoyl)pyrrolidin-3-yl)-7,8-dihydro-1,6-naphthyridin-5(6H)-one], 45.3 nM; to `O=C(Nc1cn2nc(-c3cnc4c(c3)C(=O)N(Cc3cc(F)cc(F)c3OC3CCOCC3)CC4)ccc2n1)C1CC1` [Z37, N-(6-(6-(3,5-difluoro-2-((tetrahydro-2H-pyran-4-yl)oxy)benzyl)-5-oxo-5,6,7,8-tetrahydro-1,6-naphthyridin-3-yl)imidazo[1,2-b]pyridazin-2-yl)cyclopropanecarboxamide], 0.5 nM.

The assay is the same for the next values; noted with them: Homo sapiens, U-937, 48 h, read-out: U937 IC50.
With `Cn1c(N)nc2ccc(-c3cnc4c(c3)C(=O)N(Cc3cc(OC(F)(F)F)ccc3F)CC4)cc21` [Z14, 3-(2-amino-1-methyl-1H-benzo[d]imidazol-6-yl)-6-(2-fluoro-5-(trifluoromethoxy)benzyl)-7,8-dihydro-1,6-naphthyridin-5(6H)-one], the IC50 stood at 10.2 nM. For `CC(=O)Nc1cn2nc(-c3cnc4c(c3)C(=O)N(Cc3cc(F)ccc3OC3CCOCC3)CC4)ccc2n1` [Z21, N-(6-(6-(5-fluoro-2-((tetrahydro-2H-pyran-4-yl)oxy)benzyl)-5-oxo-5,6,7,8-tetrahydro-1,6-naphthyridin-3-yl)imidazo[1,2-b]pyridazin-2-yl)acetamide], the IC50 worked out at 0.6 nM.

The same assay, now with this note: U937 cells, human TNF-α and Q-VD-Oph induced necrosis, 48 hours, survival rate; read-out: U937 IC50.
As to `C[C@@](O)(C(=O)N1C[C@@H](N2CCc3ncc(-c4cc(C(F)(F)F)c5c(N)ncnn45)cc3C2=O)[C@@H](F)C1)C(F)(F)F` (mixture of isomers) [Z27, cis-3-(4-amino-5-(trifluoromethyl)pyrrolo[2,1-f][1,2,4]triazin-7-yl)-6-(4-fluoro-1-((R)-3,3,3-trifluoro-2-hydroxy-2-methylpropionyl)pyrrolidin-3-yl)-7,8-dihydro-1,6-naphthyridin-5(6H)-one], the IC50 came to 6 nM. Take `C[C@@](O)(C(=O)N1C[C@@H](N2CCc3ncc(-c4cc(C(F)(F)F)c5c(N)ncnn45)cc3C2=O)[C@@H](F)C1)C(F)(F)F` (single isomer, unassigned) [Z27-2]: the IC50 is 1.9 nM. For `Cc1cc(-c2cnc3c(c2)C(=O)N([C@@H]2CN(C(=O)[C@@](C)(O)C(F)(F)F)C[C@@H]2F)CC3)n2ncnc(N)c12` (single isomer, unassigned) [Z30-2], the IC50 turned out to be 3.4 nM.

`C[C@@H](c1ccc(F)cc1)n1cc(N2CCc3ncc(-c4ccn5nc(N)nc5c4)cc3C2=O)cn1` (single isomer, unassigned) [Z73]: the IC50 was 34 nM. The same measure, in the same setting: then `CC(=O)Nc1cn2nc(-c3cnc4c(c3)C(=O)N(Cc3cc(F)ccc3CN3CCOCC3)CC4)ccc2n1` [Z19], with 34.7 nM; and `CC(=O)Nc1cn2nc(-c3cnc4c(c3)C(=O)N(Cc3ncccc3OC3CCOCC3)CC4)ccc2n1` [Z28, N-(6-(5-oxo-6-((3-((tetrahydro-2H-pyran-4-yl)oxy)pyridyl-2-yl)methyl)-5,6,7,8-tetrahydro-1,6-naphthyridin-3-yl)imidazo[1,2-b]pyridazin-2-yl)acetamide], with 12.7 nM; and `Cc1cc(-c2cnc3c(c2)C(=O)N([C@@H]2CN(C(=O)[C@@](C)(O)C(F)(F)F)C[C@@H]2F)CC3)n2ncnc(N)c12` [Z30, Cis-3-(4-amino-5-methylpyrrolo[2,1-f][1,2,4]triazin-7-yl)-6-(4-fluoro-1-((R)-3,3,3-trifluoro-2-hydroxy-2-methylpropionyl)pyrrolidin-3-yl)-7,8-dihydro-1,6-naphthyridin-5(6H)-one], with 9.1 nM.

The same assay, now with this note: U-937; U937 cells, human TNF-α and Q-VD-Oph induced necrosis, 48 hours, survival rate; read-out: U937 IC50.
Consider `Nc1nc2ccc(-c3cnc4c(c3)C(=O)N(Cc3cc(OC(F)(F)F)ccc3F)CC4)cc2o1` [Z16, 3-(2-aminobenzo[d]oxazol-6-yl)-6-(2-fluoro-5-(trifluoromethoxy)benzyl)-7,8-dihydro-1,6-naphthyridin-5(6H)-one], for which the IC50 was determined as 10.7 nM. `Nc1nc2cc(-c3cnc4c(c3)C(=O)N(Cc3cc(OC(F)(F)F)ccc3F)CC4)ccc2o1` [Z17, 3-(2-aminobenzo[d]oxazol-5-yl)-6-(2-fluoro-5-(trifluoromethoxy)benzyl)-7,8-dihydro-1,6-naphthyridin-5(6H)-one]: the IC50 came to 57.5 nM. The same measure, in the same setting: then `Nc1nc2ccc(-c3cnc4c(c3)C(=O)N(Cc3cc(OC(F)(F)F)ccc3F)CC4)cc2[nH]1` [Z18, 3-(2-amino-1H-benzo[d]imidazol-6-yl)-6-(2-fluoro-5-(trifluoromethoxy)benzyl)-7,8-dihydro-1,6-naphthyridin-5(6H)-one], with 70.2 nM. Regarding `CC(=O)Nc1cn2nc(-c3cnc4c(c3)C(=O)N(Cc3cc(F)cc(F)c3OC3CC3)CC4)ccc2n1` [Z20, N-(6-(6-(2-cyclopropoxy-3,5-difluorobenzyl)-5-oxo-5,6,7,8-tetrahydro-1,6-naphthyridin-3-yl)imidazo[1,2-b]pyridazin-2-yl)acetamide], the IC50 stood at 4.4 nM. Still for that read-out and setting: then `CC(=O)Nc1cn2nc(-c3cnc4c(c3)C(=O)N(Cc3cc(F)ccc3-c3cnn(C)c3)CC4)ccc2n1` [Z23, N-(6-(6-(5-fluoro-2-(1-methyl-1H-pyrazol-4-yl)benzyl)-5-oxo-5,6,7,8-tetrahydro-1,6-naphthyridin-3-yl)imidazo[1,2-b]pyridazin-2-yl)acetamide], with 24.3 nM; and `Nc1ncnn2c(-c3cnc4c(c3)C(=O)N(Cc3cc(OC(F)(F)F)ccc3F)CC4)cc(C(F)(F)F)c12` [Z24, 3-(4-amino-5-(trifluoromethyl)pyrrolo[2,1-f][1,2,4]triazin-7-yl)-6-(2-fluoro-5-(trifluoromethoxy)benzyl)-7,8-dihydro-1,6-naphthyridin-5(6H)-one], with 36.5 nM.
